# Experimental data: the NIST ThermoML archive (doi:10.1016/j.fluid.2013.11.036)
# ± gives the expanded uncertainty stated by the source.
# Conditions: Liquid; for mass density: 298.15 K, 101.33 kPa, Vibrating tube method; for Normal boiling temperature: Ebulliometric method (Recirculating still)
mass density [kg/m3],Normal boiling temperature [°C],SMILES
1042.5 ± 0.2,117.88 ± 0.2,CC(=O)O [acetic acid]
997.8 ± 0.2,100.00 ± 0.2,O [water]
